A short description of data set [1]: Tandem two-compartment PK model of C118P and C118. Type of data set: in vivo. The note with it: dog; for K12 / K21 / V1: two-compartmental model parameter (Table S1); for K10: two-compartmental model, K10 supposed to be transformation rate of C118P into C118, simulated. An excerpt: Due to the rapid transformation of C118P into C118, there is no direct way to calculate the rate of transformation, thus a two-compartment model with metabolism involved was developed (Figure S3). The transformation rate from C118P into C118 was simulated by fitting the two-serial data of prodrug C118P and C118 in rats and dogs.
3. The pharmacokinetic profile of C118P and C118 was simulated by two compartmental models. To simplify the model, the excretion rate of C118P from central compartment was supposed to be zero. In this model, both C118P and C118 were described by two-compartmental model, with elimination rate of k(0,3) for C118. The connection between C118P and C118 is by the uniflow of transformation rate of k(3,1) since the metabolism of C118P to C118 is irreversible(Figure S3).
Figure S3. The pharmacokinetic model of C118P and C118 in rat after i.v C118P. ex1: the injection dose of C118P, s1: concentration of C118 in central compartment. s2: concentration of C118 in central compartment, q1 and q3 represent the central compartment of C118P and C118, respectively.
The q2 and q4 represent the peripheral compartment of C118P and C118, respectively. k(0,3) represents the elimination rate of C118 from central compartment. k(3,1) represents the transformation rate of C118P to C118. k(2,1) and k(4,3) represent the distribution rate of C118P and C118 from central compartment to peripheral compartment. k(1,2) and k(3,4) represent the return rate of C118P and C118 from peripheral compartment to central compartment.
For prodrug pharmacokinetic prediction, the transformation of prodrug to the active drug should be studied in different system to get the right data. With the help of modeling, the transformation ratio of C118P to C118 was calculated by a tandem two-compartment model (SAAMII, University of Washington). In simulation study, the initial parameters are very important for accurate prediction.
The initial compartmental model parameters of rat and dog were first evaluated by Winnonlin using two-compartmental model at low dose, with intravenous for C118P and extra vessel for C118 since […]
(1 picture or pasted object on this page, not shown here)
C118 was transformed from C118P. The initial parameters used in the simulation were listed in Table S1. Using these parameters, the simulation of PK profiles of rat and dog are well fit to the data from in vivo at higher dose (Figure S4). The simulation of C118P and C118, the transformation rate of C118P to C118 is calculated and transformation ratio (k) is about 18.3671/h and12.588 1/h for rats and dogs, respectively.
Figure S4. The simulation of PK profile at 20 mg/kg in rat(A) and 6 mg/kg(B) in dog based on initial parameters calculated by Winnonlin. (s1 represent the simulated data for C118 and s2 represent the simulated data for C118P, plasma 1 represent the experimental data for C118 and plasma 2 represent the experimental data for C118P.) […]

Data set [2] can be described thus: Metabolic stability in liver microsomes. Format: in vitro ADME, rat. How it is done: (§1) The in vitro metabolic stability of C118P and C118 were estimated in mice, rat, dog, monkey, and human liver microsomes (Research Institute for Liver Diseases Co. Ltd (Shanghai, China)). The incubation mixture contains C118P or C118, NADP (1.0 mM), G-6-P (10 mM), PDH (2 units/mL), MgCl2 (10 mM), and liver microsomes (mice, rats, dogs, monkeys, or humans, 1.0 mg protein/mL) in phosphate buffer. A total of 200 μL of the mixture was removed and quenched with 600 μL acetonitrile in an ice bath at 0, 15, 30, 60, 120, and 240 min after the addition of NADPH.
(§2) CLint, in vitro (the in vitro intrinsic clearance, Equation (1)) was calculated from the t1/2 of C118 disappearance, where Cprotein is the protein concentration during the incubation, and t1/2 was determined by the slope (k) of the log-linear regression analysis of the concentration versus time profiles; thus, t1/2 = ln2/k. […] The in vivo hepatic clearance (CLH, Equation (3)) was then calculated by using CLint and hepatic blood flow, Q ([…] mL·min^−1·kg^−1 in rats, dogs, monkey, and humans, respectively), in the well-stirred liver model disregarding all binding. The hepatic extraction ratio was calculated as CLH divided by Q. CLint, in vitro = (0.693/t1/2) × (1/Cprotein)(1) CLint = CLint, in vitro × (mg protein/g liver weight) × (gliver weight/kg body weight)(2) CLH = (Q × CLint)/(Q + CLint)(3)

Data set [3] is described as follows: Metabolic stability in liver microsomes. Type of data set: in vitro ADME, monkey. How it is done: as §1, §2
Data set [4] can be described thus: Plasma protein binding by ultrafiltration. Format: in vitro ADME. The settings on record: human plasma, read-out: fu (fraction unbound). How it is done: Both C118P and C118 were stable in the plasma with EDTA as anticoagulant. The non-specific binding to the ultrafilter membrane was negligible. The extent of plasma protein binding was reported as a fraction unbound (fu, %) value which was calculated using the formula fu = PF/TC × 100%, where TC is test compound (C118P or C118) concentration in sample before ultrafiltration, and PF is the test compound concentration in the ultrafiltrate (Table 1).
Plasma protein binding of C118P and C118 were determined by ultrafiltration at four concentrations (C118P: 400, 4000, 40,000, and 400,000 ng/mL, C118: 20, 200, 2000, and 20,000 ng/mL) in pooled plasma from Sprague-Dawley rats, beagle dogs, and humans. Stock solutions of C118P and C118 dissolved in methanol were diluted with blank plasma to achieve the test concentrations (the methanol volume is less than 10% of the plasma). The plasma was incubated for 1 h in a water bath at 37 °C. The total concentration of C118P and C118 of spiked plasma (TC) was analyzed by previously described methods. Ultrafiltration was performed with activated high speed centrifugal tubes (Millipore, Burlington, MA, USA). Plasma samples (0.4 mL) were added to the upper layer of the high speed centrifugal tubes, and then centrifuged at 12,000 g for 10 min. The concentration of unbound C118P and C118 in filtrate (PF) was similarly determined by the previously described methods. The percentage of free fraction (fu) of C118P and C118 was calculated as follows: fu = (PF/TC) × 100%.

Data set [5] can be described thus: Metabolic stability in liver microsomes. Format: in vitro ADME, mice. How it is done: as §1, §2

This is an account of results in publication PMC6278385, “Preclinical Pharmacokinetics of C118P, a Novel Prodrug of Microtubules Inhibitor and Its Metabolite C118 in Mice, Rats, and Dogs” (Molecules, 2018).

In data set [1], `COc1cc(OC)cc(-c2nc[nH]c2-c2ccc(OC)c(OP(=O)([O-])[O-])c2)c1.[Na+].[Na+]` [C118P] returned a K12 of 1.844 h⁻¹, a K21 of 4.727 h⁻¹, a V1 of 50.97 mL/kg and a K10 of 12.558 h⁻¹. Besides, the “stability in liver microsomes” value in data set [2] (rat liver microsomes (Figure S1)) is reported as “quite stable”. Also, the “stability in liver microsomes” value in data set [3] (monkey liver microsomes (Figure S1)) is on record as “quite stable”. The fraction unbound at 1 h, 400 ng/mL in data set [4] (C118P 400 ng/mL) came out at 0.022 ± 0.001. Besides, in data set [4] (C118P 4000 ng/mL), the fraction unbound at 1 h, 4000 ng/mL was found to be 0.027. Further, in data set [4] (C118P 40,000 ng/mL), the fraction unbound at 1 h, 40000 ng/mL worked out at 0.022 ± 0.001. Further, the fraction unbound at 1 h, 400000 ng/mL in data set [4] (C118P 400,000 ng/mL) came to 0.057 ± 0.004. Moreover, the “stability in liver microsomes” value in data set [5] (mice liver microsomes (Figure S1)) is recorded as “quite stable”.
Regarding `COc1cc(OC)cc(-c2nc[nH]c2-c2ccc(OC)c(O)c2)c1` [C118], the K12 in data set [1] amounted to 1.3247 h⁻¹. Moreover, the K21 in data set [1] turned out to be 0.2110 h⁻¹. In data set [1], this compound came in with a V1 of 220.5 mL/kg. The K10 in data set [1] is 3.1444 h⁻¹. For the same compound, the half-life in data set [2] (Sprague-Dawley, rat liver microsomes, 1.0 mg protein/mL, C118 disappearance) was determined as 10.3 min; in data set [3] (monkey liver microsomes, 1.0 mg protein/mL, C118 disappearance), 2.2 min; in data set [5] (mouse, mice liver microsomes, 1.0 mg protein/mL, C118 disappearance), 15.5 min. The “CLint, in vitro” value in data set [2] (rat liver microsomes) was determined as 67.0 μL·min^−1·mg^−1 Protein; in data set [3] (monkey liver microsomes), 318.6 μL·min^−1·mg^−1 Protein; in data set [5] (mice liver microsomes), 44.7 μL·min^−1·mg^−1 Protein. For the same compound, the CLint in data set [2] (rat, scaled from CLint, in vitro) turned out to be 115.3 mL/min/kg; in data set [3] (monkey, scaled from CLint, in vitro), 252.8 mL/min/kg; in data set [5] (mice, scaled from CLint, in vitro), 115.3 mL/min/kg. The “Extrapolated CLH” value is 43.6 mL/min/kg in data set [2] (rat, well-stirred liver model) and 37.5 mL/min/kg in data set [3] (monkey, well-stirred liver model). For the same compound, the fraction unbound at 1 h, 200 ng/mL in data set [4] (pooled plasma, C118 200 ng/mL) stood at 0.028 ± 0.002. The fraction unbound at 1 h, 2000 ng/mL in data set [4] (pooled plasma, C118 2000 ng/mL) worked out at 0.047 ± 0.002. The fraction unbound at 1 h, 20000 ng/mL in data set [4] (pooled plasma, C118 20,000 ng/mL) was determined as 0.038 ± 0.002.
